Assay results taken from patent US6762052B1, “DNA sequence encoding flavin-containing monooxygenase” (priority 1993, dated 2004).
Numbering of substitutions follows the chain as printed.

Tests used:
glu158-HFMO3-MBP = biological target: T1, glu158-HFMO3-MBP (Homo sapiens, UniProt P31513); test: Substrate oxygenation by glu158-HFMO3-MBP fusion protein, HPLC; conditions: glu158-HFMO3-MBP, N-oxygenation
T1 sequence (P31513 2-532): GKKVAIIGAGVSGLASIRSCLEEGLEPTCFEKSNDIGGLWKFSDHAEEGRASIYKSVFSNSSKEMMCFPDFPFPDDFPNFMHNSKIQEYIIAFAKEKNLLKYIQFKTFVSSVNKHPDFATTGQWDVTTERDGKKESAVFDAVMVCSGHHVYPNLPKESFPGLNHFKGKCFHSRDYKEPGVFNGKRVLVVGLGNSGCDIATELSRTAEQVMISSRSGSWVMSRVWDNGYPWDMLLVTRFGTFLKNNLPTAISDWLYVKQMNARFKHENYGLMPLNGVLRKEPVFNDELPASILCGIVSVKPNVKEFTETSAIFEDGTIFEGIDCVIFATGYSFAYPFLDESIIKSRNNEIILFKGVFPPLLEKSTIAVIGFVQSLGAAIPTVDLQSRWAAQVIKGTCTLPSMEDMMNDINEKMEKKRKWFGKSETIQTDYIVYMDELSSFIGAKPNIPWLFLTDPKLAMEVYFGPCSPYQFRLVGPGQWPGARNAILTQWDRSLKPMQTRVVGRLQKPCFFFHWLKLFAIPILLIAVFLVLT
Description: (§1) For HFMO3-MBP assay, all HFMO3-MBP incubations were done as follows: Into a test tube was added DETAPAC (1.2 mM, final concentration for a 250 μl reaction) followed by the addition of 60 μl NADPH generating system (0.4 mM NADP, 0.4 mM glucose-6-phosphate, and 20 μl of a 50 units mI^−1 glucose-6-phosphate dehydrogenase). The tube was chilled on ice and buffer and enzyme were added as described below for individual experiments to give a volume of 240 μl. The incubation was initiated by the addition of 5-DTP (10 μl of 5 mM) and placed in a shaking water bath at 37° C. for 10 min (unless specified otherwise). The incubation was stopped by the addition of 1.0 ml of ice-cold CH2Cl2. Following the addition of sodium carbonate (approx. 20 mg), the culture tube was vortexed, centrifuged (2000×g, 10 min), and the organic layer was removed and transferred to a 1.5 ml microfuge tube. The organic solvent was evaporated under a stream of Ar(g) to dryness and the residue was taken up in MeOH (300 μl) for determination HPLC analysis.
(§2) Data was analyzed with a Hitachi D-2500 integrator.
(§3) MTS-oxygenation assays were carried out under the same buffer, temperature, time and volume conditions, as for the N-oxygenation assays. The reactions were initiated upon addition of 10 μl of a 5 mM solution of MTS. The reaction was quenched with the addition of 700 μl of 80% CH3CN:20% hexane then 20 mg NaCl(s) and vortexed vigorously for 10 sec. The quenched reactions were then centrifuged briefly to separate the phases. The organic layer, containing product and substrate, was removed and used directly for HPLC analysis.
(§4) All other instruments used were the same as above for the N-oxygenation reactions. Conditions for elution were 50% CH3CN/H2O (v:v) with a flow rate gradient as follows: 1.5 ml min^−1 from 0 to 4 min., 1.5-2.5 ml min^−1 from 4 to 5 min, 2.5 ml min^−1 from 5 to 15 min.
Trimethylamine is commonly ingested in foodstuffs or it is available in the diet of humans from choline and other sources. Trimethylamine (TMA) is exclusively eliminated in humans by metabolism to trimethylamine N-oxide (TMANO). […]

lys158-HFMO3-MBP = biological target: T2, lys158-HFMO3-MBP (Homo sapiens, UniProt P31513, E158K); test: Substrate oxygenation by lys158-HFMO3-MBP fusion protein, HPLC; conditions: lys158-HFMO3-MBP, N-oxygenation
T2 sequence (P31513 2-532 E158K): T1 sequence (P31513 2-532) with E157K
Description: as §1, §2, §3, §4
Trimethylamine is commonly ingested in foodstuffs or it is available in the diet of humans from choline and other sources. Trimethylamine (TMA) is exclusively eliminated in humans by metabolism to trimethylamine N-oxide (TMANO). […] Thus, urinary TMANO formation provides a simple, reliable and direct assay of FMO3 activity in adult humans. Analysis of TMA to TMANO ratios provides a direct means of phenotyping adult humans for FMO3 activity. Phenotyping FMO3 activity in humans would provide a simple means of evaluating the relationship between the presence of FMO3 and various disease conditions. […]

Q: With `CN(C)CCCCCN1c2ccccc2Sc2ccc(C(F)(F)F)cc21` [Compound 5] as the molecule, how does the Km (glu158-HFMO3-MBP) read?
A: 108 µM

Q: What about the Vmax (glu158-HFMO3-MBP; Lineweaver-Burke analysis) of the same molecule?
A: 15.8 nmole/min/nmol of flavin

Q: What about the Km (lys158-HFMO3-MBP) of the same molecule?
A: 78 µM

Q: What about the Vmax (lys158-HFMO3-MBP; Lineweaver-Burke analysis) of the same molecule?
A: 1.88 nmole/min/nmol of flavin
